Assay results as given in US20100173298A1, “HCV GENE” (priority 2007, published 2010).

Assays:
[1] = test system: pTPF1/AHC1_AgeBsr full-length HCV RNA replicon; test: Inhibition of replication of full-length HCV RNA replicon by interferon (core antigen in Huh7 cells); assay type: cell-based, hepatitis C virus (genotype 1b); details: interferon 0.1 to 300 IU/ml for 24 hours, core antigen in cells vs no-interferon control
Excerpt: (§1) Evaluation of an inhibitory action of interferon on the replication of the HCV RNA replicon was attempted using the full-length HCV RNA replicon. The full-length HCV RNA used for the evaluation of the inhibitory action of interferon was pTPF1/4B which was replicable with high efficiency in Huh7 cells in Example 4 and a chimera between AHC1 obtained in Example 6 and pTPF1/4B was also used. As for a chimera vector, the full-length HCV DNA pTPF1 was digested with restriction enzymes, Age I and Bsr GI and a fragment obtained by digesting AHC1 with restriction enzymes, Age I and Bsr GI were ligated to and inserted into the region of the cleavage of pTPF1, thereby preparing HCV DNA pTPF1/AHC1_AgeBsr in which the structural protein region of AHC1 was inserted. […]
(§2) At twenty four hours after the culture was started, the medium was replaced with culture medium dissolving various concentrations (from 0.1 IU/ml to 300 IU/ml) of interferon. […] Cell pellet was dissolved in 50 μl of RIPA buffer (20 mM Tris-HCl (pH 7.5), 150 mM NaCl, 1 mM EDTA, 1% NP40, 0.1% Deoxycholate, 0.1% SDS, Complete protease inhibitor cocktail (Roche diagnostics corporation) and supernatant was collected by centrifugation at 10 k rpm for 5 minutes. The supernatant in an amount of 5 μl was measured using a kit for HCV core antigen (FUJIREBIO, Lumipulse).

[2] = test system: pTPF1/4B full-length HCV RNA replicon; test: as above; assay type: cell-based, hepatitis C virus (genotype 1b); details: pTPF1/4B RNA in Huh7 cells; interferon 0.1 to 300 IU/ml for 24 hours; core antigen in cells vs no-interferon control
Excerpt: as §1, §2

interferon
Inhibitory activity for replication of HCV RNA replicon: IC50 [1]: 33 IU/m | Inhibitory activity for replication of HCV RNA replicon: IC50 [2]: >300 IU/m
